Experimental data taken from ChEMBL document CHEMBL4842347, “Structure-activity relationship and biochemical evaluation of novel fibroblast activation protein and prolyl endopeptidase inhibitors with α-ketoamide warheads” (Eur J Med Chem, 2021).
pIC50: −log10 of the molar value. The source made the active and inactive calls. The rule behind the calls is not given here.

How the values were obtained:
HepG2 = assay: Cytotoxicity against human HepG2 cells assessed as reduction in cell viability incubated for 72 hrs measured by […]-based colorimetric assay; assay type: functional
CCRF-CEM = assay: Cytotoxicity against human CCRF-CEM cells assessed as reduction in cell viability incubated for 72 hrs measured by […]-based colorimetric assay; assay type: functional
HL-60 = assay: Cytotoxicity against human HL-60 cells assessed as reduction in cell viability incubated for 72 hrs measured by […]-based colorimetric assay; assay type: functional
HeLa = assay: Cytotoxicity against human HeLa cells assessed as reduction in cell viability incubated for 72 hrs measured by […]-based colorimetric assay; assay type: functional
[1] = Inhibition of PREP (unknown origin) using fluorogenic substrate by spectrometric assay; design: species or system Homo sapiens
Dipeptidyl peptidase 4 = Dipeptidyl peptidase 4 (Homo sapiens, UniProt P27487); assay: Inhibition of SF-tagged DPP4 (unknown origin) expressed in Drosophila S2 cells using fluorogenic substrate by spectrometric analysis; assay type: cell-based
Chain of Dipeptidyl peptidase 4 (P27487 whole entry): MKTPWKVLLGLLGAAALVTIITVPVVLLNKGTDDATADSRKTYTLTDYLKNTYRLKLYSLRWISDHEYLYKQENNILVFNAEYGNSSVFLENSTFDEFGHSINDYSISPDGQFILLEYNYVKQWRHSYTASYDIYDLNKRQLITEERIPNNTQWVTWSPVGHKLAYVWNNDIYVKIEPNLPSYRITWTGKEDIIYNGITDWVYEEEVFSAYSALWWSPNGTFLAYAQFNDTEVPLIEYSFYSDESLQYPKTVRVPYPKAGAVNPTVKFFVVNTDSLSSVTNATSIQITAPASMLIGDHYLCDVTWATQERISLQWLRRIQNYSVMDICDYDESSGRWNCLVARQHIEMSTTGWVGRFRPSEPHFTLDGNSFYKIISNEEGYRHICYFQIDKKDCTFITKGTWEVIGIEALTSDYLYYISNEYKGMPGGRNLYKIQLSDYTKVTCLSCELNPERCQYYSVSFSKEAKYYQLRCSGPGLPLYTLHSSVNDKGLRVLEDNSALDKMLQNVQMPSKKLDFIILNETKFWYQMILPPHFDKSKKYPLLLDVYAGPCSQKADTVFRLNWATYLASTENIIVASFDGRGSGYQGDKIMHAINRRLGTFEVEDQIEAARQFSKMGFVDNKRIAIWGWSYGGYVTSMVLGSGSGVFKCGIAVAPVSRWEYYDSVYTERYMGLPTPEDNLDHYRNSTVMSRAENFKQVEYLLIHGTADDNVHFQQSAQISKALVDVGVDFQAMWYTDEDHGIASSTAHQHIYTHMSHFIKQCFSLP

COC(=O)C(NC(=O)C(=O)[C@@H]1CCCN1C(=O)CNC(=O)c1ccnc2ccccc12)C(C)C (some centres undefined)
Activity (HepG2): inactive | Activity (CCRF-CEM): inactive | Activity (HL-60): inactive | Activity (HeLa): inactive

CC(C)NC(=O)CNC(=O)C(=O)[C@@H]1CCCN1C(=O)CNC(=O)c1ccnc2ccccc12
Activity (HepG2): inactive | Activity (CCRF-CEM): inactive | Activity (HL-60): inactive | Activity (HeLa): inactive

COC(=O)[C@H](CCC(N)=O)NC(=O)CNC(=O)C(=O)[C@@H]1CCCN1C(=O)CNC(=O)c1ccnc2ccccc12
Activity (HepG2): inactive | Activity (CCRF-CEM): inactive | Activity (HL-60): inactive | Activity (HeLa): inactive

O=C(NCc1ccc(F)cc1)C(=O)[C@@H]1CCCN1C(=O)CNC(=O)c1ccnc2ccccc12
Activity (HepG2): inactive | Activity (CCRF-CEM): inactive | pIC50 [1]: 9.59 | Activity (HL-60): inactive | pIC50 (Dipeptidyl peptidase 4): < 5.52 | Activity (HeLa): inactive

COC(=O)C(C)NC(=O)C(=O)[C@@H]1CCCN1C(=O)CNC(=O)c1ccnc2ccccc12 (mixture of isomers)
Activity (HepG2): inactive | Activity (CCRF-CEM): inactive | Activity (HL-60): inactive | Activity (HeLa): inactive

CCOC(=O)CNC(=O)C(=O)[C@@H]1CCCN1C(=O)CNC(=O)c1ccnc2ccccc12
Activity (HepG2): inactive | Activity (CCRF-CEM): inactive | Activity (HL-60): inactive | Activity (HeLa): inactive

CNC(=O)CNC(=O)C(=O)[C@@H]1CCCN1C(=O)CNC(=O)c1ccnc2ccccc12
Activity (HepG2): inactive | Activity (CCRF-CEM): inactive | Activity (HL-60): inactive | Activity (HeLa): inactive

O=C(NC1CC1)C(=O)[C@@H]1CCCN1C(=O)CNC(=O)c1ccnc2ccccc12
Activity (HepG2): inactive | Activity (CCRF-CEM): inactive | Activity (HL-60): inactive | Activity (HeLa): inactive

O=C(NCC(=O)N1CCOCC1)C(=O)[C@@H]1CCCN1C(=O)CNC(=O)c1ccnc2ccccc12
Activity (HepG2): inactive | Activity (CCRF-CEM): inactive | pIC50 [1]: 9.31 | Activity (HL-60): inactive | pIC50 (Dipeptidyl peptidase 4): < 5.40 | Activity (HeLa): inactive

COC(=O)[C@H](CCCCN)NC(=O)CNC(=O)C(=O)[C@@H]1CCCN1C(=O)CNC(=O)c1ccnc2ccccc12
Activity (HepG2): inactive | Activity (CCRF-CEM): inactive | Activity (HL-60): inactive | Activity (HeLa): inactive

COC(=O)CNC(=O)CNC(=O)C(=O)[C@@H]1CCCN1C(=O)CNC(=O)c1ccnc2ccccc12
Activity (HepG2): inactive | Activity (CCRF-CEM): inactive | Activity (HL-60): inactive | Activity (HeLa): inactive

Cc1ccc(CNC(=O)C(=O)[C@@H]2CCCN2C(=O)CNC(=O)c2ccnc3ccccc23)c(C)c1
Activity (HepG2): inactive | Activity (CCRF-CEM): inactive | pIC50 [1]: 9.18 | Activity (HL-60): inactive | pIC50 (Dipeptidyl peptidase 4): < 5.40 | Activity (HeLa): inactive

COc1cccc(CNC(=O)C(=O)[C@@H]2CCCN2C(=O)CNC(=O)c2ccnc3ccccc23)c1
Activity (HepG2): inactive | Activity (CCRF-CEM): inactive | Activity (HL-60): inactive | Activity (HeLa): inactive

CCCCCCNC(=O)CNC(=O)C(=O)[C@@H]1CCCN1C(=O)CNC(=O)c1ccnc2ccccc12
Activity (HepG2): inactive | Activity (CCRF-CEM): inactive | Activity (HL-60): inactive | Activity (HeLa): inactive

COC(=O)[C@H](CCCCNC(=O)OCc1ccccc1)NC(=O)CNC(=O)C(=O)[C@@H]1CCCN1C(=O)CNC(=O)c1ccnc2ccccc12
Activity (HepG2): inactive | Activity (CCRF-CEM): inactive | pIC50 [1]: 9.54 | Activity (HL-60): inactive | pIC50 (Dipeptidyl peptidase 4): < 5.40 | Activity (HeLa): inactive

CC(C)(C)OC(=O)CNC(=O)C(=O)[C@@H]1CCCN1C(=O)CNC(=O)c1ccnc2ccccc12
Activity (HepG2): inactive | Activity (CCRF-CEM): inactive | pIC50 [1]: 9.28 | Activity (HL-60): inactive | pIC50 (Dipeptidyl peptidase 4): < 5.52 | Activity (HeLa): inactive

N#C[C@@H]1CCCN1C(=O)CNC(=O)c1ccnc2ccccc12
pIC50 [1]: 6.49 | pIC50 (Dipeptidyl peptidase 4): < 5.40

O=C(NCCc1ccccc1)C(=O)[C@@H]1CCCN1C(=O)CNC(=O)c1ccnc2ccccc12
Activity (HepG2): inactive | Activity (CCRF-CEM): inactive | Activity (HL-60): inactive | Activity (HeLa): inactive

O=CCNC(=O)CNC(=O)C(=O)[C@@H]1CCCN1C(=O)CNC(=O)c1ccnc2ccccc12
Activity (HepG2): inactive | Activity (CCRF-CEM): inactive | Activity (HL-60): inactive | Activity (HeLa): inactive

COc1ccc(NC(=O)C(=O)[C@@H]2CCCN2C(=O)CNC(=O)c2ccnc3ccccc23)cc1
Activity (HepG2): inactive | Activity (CCRF-CEM): inactive | Activity (HL-60): inactive | Activity (HeLa): inactive

COC(=O)c1ccc(NC(=O)C(=O)[C@@H]2CCCN2C(=O)CNC(=O)c2ccnc3ccccc23)cc1
Activity (HepG2): inactive | Activity (CCRF-CEM): inactive | Activity (HL-60): inactive | Activity (HeLa): inactive

O=C(CNC(=O)C(=O)[C@@H]1CCCN1C(=O)CNC(=O)c1ccnc2ccccc12)NCc1ccccc1
Activity (HepG2): inactive | Activity (CCRF-CEM): inactive | Activity (HL-60): inactive | Activity (HeLa): inactive

COC(=O)CNC(=O)C(=O)[C@@H]1CCCN1C(=O)CNC(=O)c1ccnc2ccccc12
Activity (HepG2): inactive | Activity (CCRF-CEM): inactive | Activity (HL-60): inactive | Activity (HeLa): inactive

CC(C)(C)NC(=O)CNC(=O)C(=O)[C@@H]1CCCN1C(=O)CNC(=O)c1ccnc2ccccc12
Activity (HepG2): inactive | Activity (CCRF-CEM): inactive | pIC50 [1]: 9.14 | Activity (HL-60): inactive | pIC50 (Dipeptidyl peptidase 4): < 5.40 | Activity (HeLa): inactive

COC(=O)[C@H](CCC(=O)NCc1ccccc1)NC(=O)CNC(=O)C(=O)[C@@H]1CCCN1C(=O)CNC(=O)c1ccnc2ccccc12
Activity (HepG2): inactive | Activity (CCRF-CEM): inactive | Activity (HL-60): inactive | Activity (HeLa): inactive

O=C(NC(c1ccccc1)c1ccccc1)C(=O)[C@@H]1CCCN1C(=O)CNC(=O)c1ccnc2ccccc12
Activity (HepG2): inactive | Activity (CCRF-CEM): inactive | Activity (HL-60): inactive | Activity (HeLa): inactive

COC(=O)[C@H](CO)NC(=O)CNC(=O)C(=O)[C@@H]1CCCN1C(=O)CNC(=O)c1ccnc2ccccc12
Activity (HepG2): inactive | Activity (CCRF-CEM): inactive | Activity (HL-60): inactive | Activity (HeLa): inactive

O=C(NCC(=O)N1CCCC1)C(=O)[C@@H]1CCCN1C(=O)CNC(=O)c1ccnc2ccccc12
Activity (HepG2): inactive | Activity (CCRF-CEM): inactive | Activity (HL-60): inactive | Activity (HeLa): inactive

O=C(CNC(=O)C(=O)[C@@H]1CCCN1C(=O)CNC(=O)c1ccnc2ccccc12)NC1CC1
Activity (HepG2): inactive | Activity (CCRF-CEM): inactive | Activity (HL-60): inactive | Activity (HeLa): inactive

N#C[C@@H]1CC(F)(F)CN1C(=O)CNC(=O)c1ccnc2ccccc12
pIC50 [1]: 6.51

O=C(NC1CCCCC1)C(=O)[C@@H]1CCCN1C(=O)CNC(=O)c1ccnc2ccccc12
Activity (HepG2): inactive | Activity (CCRF-CEM): inactive | Activity (HL-60): inactive | Activity (HeLa): inactive

CN(C)C(=O)CNC(=O)C(=O)[C@@H]1CCCN1C(=O)CNC(=O)c1ccnc2ccccc12
Activity (HepG2): inactive | Activity (CCRF-CEM): inactive | Activity (HL-60): inactive | Activity (HeLa): inactive

O=C(NC12CC3CC(CC(C3)C1)C2)C(=O)[C@@H]1CCCN1C(=O)CNC(=O)c1ccnc2ccccc12
Activity (HepG2): inactive | Activity (CCRF-CEM): inactive | Activity (HL-60): inactive | Activity (HeLa): inactive

COC(=O)[C@H](CC(=O)OCc1ccccc1)NC(=O)CNC(=O)C(=O)[C@@H]1CCCN1C(=O)CNC(=O)c1ccnc2ccccc12
Activity (HepG2): inactive | Activity (CCRF-CEM): inactive | Activity (HL-60): inactive | Activity (HeLa): inactive

COC(=O)[C@H](CCC(=O)O)NC(=O)CNC(=O)C(=O)[C@@H]1CCCN1C(=O)CNC(=O)c1ccnc2ccccc12
Activity (HepG2): inactive | Activity (CCRF-CEM): inactive | pIC50 [1]: 8.89 | Activity (HL-60): inactive | pIC50 (Dipeptidyl peptidase 4): < 5.40 | Activity (HeLa): inactive

CCCCCNC(=O)C(=O)[C@@H]1CCCN1C(=O)CNC(=O)c1ccnc2ccccc12
Activity (HepG2): inactive | Activity (CCRF-CEM): inactive | pIC50 [1]: 9.40 | Activity (HL-60): inactive | Activity (HeLa): inactive

CC(C)NC(=O)C(=O)[C@@H]1CCCN1C(=O)CNC(=O)c1ccnc2ccccc12
Activity (HepG2): inactive | Activity (CCRF-CEM): inactive | Activity (HL-60): inactive | Activity (HeLa): inactive

COc1ccc(CNC(=O)C(=O)[C@@H]2CCCN2C(=O)CNC(=O)c2ccnc3ccccc23)cc1
Activity (HepG2): inactive | Activity (CCRF-CEM): inactive | Activity (HL-60): inactive | Activity (HeLa): inactive

COc1ccc(CNC(=O)CNC(=O)C(=O)[C@@H]2CCCN2C(=O)CNC(=O)c2ccnc3ccccc23)cc1OC
Activity (HepG2): inactive | Activity (CCRF-CEM): inactive | Activity (HL-60): inactive | Activity (HeLa): inactive

COC(=O)[C@H](CC(C)C)NC(=O)CNC(=O)C(=O)[C@@H]1CCCN1C(=O)CNC(=O)c1ccnc2ccccc12
Activity (HepG2): inactive | Activity (CCRF-CEM): inactive | Activity (HL-60): inactive | Activity (HeLa): inactive

CC(C)(C)CNC(=O)C(=O)[C@@H]1CCCN1C(=O)CNC(=O)c1ccnc2ccccc12
Activity (HepG2): inactive | Activity (CCRF-CEM): inactive | Activity (HL-60): inactive | Activity (HeLa): inactive
